This test is described as follows: Potency code of Table 2 (assay not stated).

Structures are written as SMILES.

`CCc1ccc(Oc2c[nH]nc2-c2ccc(OCc3ccc(Cl)cc3)cc2O)cc1` [NUCC-0176243]: the Potency code result is on record as “+ (>40 +)”.

For the molecule `CCc1ccc(Oc2c[nH]nc2-c2ccc(OCc3ccc(C(F)(F)F)cc3)cc2O)cc1` [NUCC-0176244], the Potency code entry is recorded as “+ (>40 +)”.

As for `CCc1ccc(Oc2c(-c3ccc(OCCc4cccc(C(F)(F)F)c4)cc3O)n[nH]c2C(F)(F)F)cc1` [NUCC-0176245], the Potency code result was “++ (30-40 ++)”.

For `CCc1ccc(Oc2c[nH]nc2-c2ccc(OCc3cnn(C)c3)cc2O)cc1` [NUCC-0176246], the Potency code result is reported as “+ (>40 +)”.

For the molecule `Oc1cc(OCc2ccc(Cl)cc2)ccc1-c1n[nH]cc1Oc1ccccc1` [NUCC-0176247], the Potency code result is on record as “+ (>40 +)”.

With `Cc1[nH]nc(-c2ccc(OCc3cnn(C)c3)cc2O)c1Oc1ccccc1` [NUCC-0176249], the Potency code result is “+ (>40 +)”.

As to `Oc1cc(OCc2ccncc2)ccc1-c1n[nH]cc1Oc1ccccc1` [NUCC-0176251], the Potency code entry is given as “+ (>40 +)”.

`Cc1[nH]nc(-c2ccc(OCCc3ccc(Cl)cc3)cc2O)c1Oc1ccccc1` [NUCC-0176252]: the Potency code entry was “+ (>40 +)”.

With `Cc1[nH]nc(-c2ccc(OCc3ccc(Cl)cc3)cc2O)c1Oc1ccccc1` [NUCC-0176253], the Potency code entry is “+ (>40 +)”.

Regarding `CCc1ccc(Oc2c[nH]nc2-c2ccc(OCc3ccncc3)cc2O)cc1` [NUCC-0176254], the Potency code entry was “+ (>40 +)”.

Turning to `Oc1cc(OCc2ccccc2)ccc1-c1n[nH]cc1Oc1ccccc1` [NUCC-0176255], the Potency code result is given as “+ (>40 +)”.

Take `CCc1ccc(Oc2c[nH]nc2-c2ccc(OCC3CCCCC3)cc2O)cc1` [NUCC-0176256]: the Potency code result was “+ (>40 +)”.

For `CCc1ccc(Oc2c[nH]nc2-c2ccc(OCc3ccc(F)cc3)cc2O)cc1` [NUCC-0176257], the Potency code entry was “+ (>40 +)”.

With `CCc1ccc(Oc2c[nH]nc2-c2ccc(OCCc3ccc(F)cc3)cc2O)cc1` [NUCC-0176258], the Potency code result is “+ (>40 +)”.

As to `Cc1[nH]nc(-c2ccc(OCc3ccc(F)cc3)cc2O)c1Oc1ccccc1` [NUCC-0176259], the Potency code result was “+ (>40 +)”.

Take `CCc1ccc(Oc2cn(C)nc2-c2ccc(OCc3ccc(Cl)cc3)cc2O)cc1` [NUCC-0176260]: the Potency code result is “+ (>40 +)”.

Consider `CCc1ccc(Oc2c[nH]nc2-c2ccc(OCCc3ccc(Cl)cc3)cc2O)cc1` [NUCC-0176261], for which the Potency code entry is “+ (>40 +)”.

With `CCc1ccc(Oc2c(-c3ccc(OCc4ccc(Cl)cc4)cc3O)n[nH]c2CC)cc1` [NUCC-0196282], the Potency code result is “+ (>40 +)”.

Consider `COc1ccc(-c2c(-c3ccc(OCc4ccc(Cl)cc4)cc3O)n[nH]c2C(F)(F)F)cc1OC` [NUCC-0196283], for which the Potency code entry was “++++ (<10 ++++)”.

As to `Cc1ccc(C)c(Oc2c[nH]nc2-c2ccc(OCc3ccc(Cl)cc3)cc2O)c1` [NUCC-0196284], the Potency code entry is on record as “+ (>40 +)”.

With `Cc1ccc(C)c(Oc2cn(C)nc2-c2ccc(OCc3ccc(Cl)cc3)cc2O)c1` [NUCC-0196285], the Potency code entry was “+ (>40 +)”.

For the molecule `Cc1ccc(C)c(Oc2c[nH]nc2-c2ccc(OCc3cccc(Cl)c3)cc2O)c1` [NUCC-0196286], the Potency code entry was “+ (>40 +)”.

Take `Cc1ccc(C)c(Oc2cn(C)nc2-c2ccc(OCc3cccc(Cl)c3)cc2O)c1` [NUCC-0196287]: the Potency code entry was “+ (>40 +)”.

`COc1cccc(COc2ccc(-c3n[nH]cc3Oc3cc(C)ccc3C)c(O)c2)c1` [NUCC-0196288]: the Potency code entry is “+ (>40 +)”.

In the case of `COc1cccc(COc2ccc(-c3nn(C)cc3Oc3cc(C)ccc3C)c(O)c2)c1` [NUCC-0196289], the Potency code entry is given as “+ (>40 +)”.

Take `Cc1ccc(C)c(Oc2c[nH]nc2-c2ccc(OCc3ccc4ccccc4c3)cc2O)c1` [NUCC-0196290]: the Potency code entry is “+ (>40 +)”.

On to `Cc1ccc(C)c(Oc2cn(C)nc2-c2ccc(OCc3ccc4ccccc4c3)cc2O)c1` [NUCC-0196291], for which the Potency code result is “+ (>40 +)”.

For the molecule `CCc1ccc(Oc2c(-c3ccc(OCc4ccc(Cl)cc4)cc3O)nn(C)c2CC)cc1` [NUCC-0196294], the Potency code result is “+ (>40 +)”.

Source of the values: patent US20200392116A1, “SUBSTITUTED HETEROCYCLES AS c-MYC TARGETING AGENTS” (NORTHWESTERN UNIVERSITY, priority 2019, published 2020).
